Common to all, as to format: cell-based
Test [1] has as its target T1, GABAA receptor (α1β3γ2L), β3 subunit (Homo sapiens, UniProt P14867+P18507+P28472). Briefly: two-electrode voltage clamp. In general terms: In two-electrode clamp one electrode senses voltage and the other passes current.
For test [2], the target named is T1, GABAA receptor (α1β3γ2L), β3 subunit. In words: two-electrode voltage clamp in oocytes.
Test [3] has the same target. Briefly: two-electrode voltage clamp. This is another data set of the same source.

T1 sequence (P28472 26-473): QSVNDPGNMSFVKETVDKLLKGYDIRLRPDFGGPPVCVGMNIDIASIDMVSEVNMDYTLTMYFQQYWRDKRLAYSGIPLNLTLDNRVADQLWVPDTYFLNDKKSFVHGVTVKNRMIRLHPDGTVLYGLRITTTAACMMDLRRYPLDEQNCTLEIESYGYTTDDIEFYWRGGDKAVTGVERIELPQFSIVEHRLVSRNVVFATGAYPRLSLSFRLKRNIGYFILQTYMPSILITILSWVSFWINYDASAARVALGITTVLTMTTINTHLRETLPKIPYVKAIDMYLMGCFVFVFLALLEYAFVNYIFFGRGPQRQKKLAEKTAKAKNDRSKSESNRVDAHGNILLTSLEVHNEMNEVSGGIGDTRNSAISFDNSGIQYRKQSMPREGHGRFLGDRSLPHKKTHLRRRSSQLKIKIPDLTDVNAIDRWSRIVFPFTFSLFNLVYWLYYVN
T1 sequence (P14867 28-456): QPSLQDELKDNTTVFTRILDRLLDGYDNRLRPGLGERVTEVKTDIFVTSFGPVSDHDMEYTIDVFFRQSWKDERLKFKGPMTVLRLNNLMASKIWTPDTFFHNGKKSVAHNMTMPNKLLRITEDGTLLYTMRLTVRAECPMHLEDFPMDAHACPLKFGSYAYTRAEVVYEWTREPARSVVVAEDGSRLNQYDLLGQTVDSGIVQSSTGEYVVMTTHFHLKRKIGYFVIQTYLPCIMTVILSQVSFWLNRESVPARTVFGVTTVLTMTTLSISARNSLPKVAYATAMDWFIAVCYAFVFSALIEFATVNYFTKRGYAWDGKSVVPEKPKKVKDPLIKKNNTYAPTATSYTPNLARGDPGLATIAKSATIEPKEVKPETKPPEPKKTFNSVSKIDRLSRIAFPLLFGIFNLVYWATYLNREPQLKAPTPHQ
T1 sequence (P18507 40-475): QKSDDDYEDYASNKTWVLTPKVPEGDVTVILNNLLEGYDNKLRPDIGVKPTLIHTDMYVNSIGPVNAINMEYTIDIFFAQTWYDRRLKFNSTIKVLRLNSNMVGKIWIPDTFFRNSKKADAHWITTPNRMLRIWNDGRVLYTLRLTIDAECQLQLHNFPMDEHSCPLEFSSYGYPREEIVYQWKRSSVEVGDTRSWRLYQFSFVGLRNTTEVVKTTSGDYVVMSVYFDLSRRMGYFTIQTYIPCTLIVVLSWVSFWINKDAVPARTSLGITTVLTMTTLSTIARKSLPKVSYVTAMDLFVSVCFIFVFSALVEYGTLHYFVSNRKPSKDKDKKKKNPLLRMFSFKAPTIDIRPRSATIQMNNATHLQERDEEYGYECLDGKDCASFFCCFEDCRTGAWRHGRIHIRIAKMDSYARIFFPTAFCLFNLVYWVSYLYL

`CC(=O)[C@H]1CC[C@H]2[C@@H]3CC[C@H]4C[C@H](O)CC[C@]4(C)[C@H]3C(=O)C[C@]12C` [Alphaxalone]: the “two-electrode voltage clamp; potentiation of EC5 GABA currents, reversed by naph” value (from here on “two-electrode voltage clamp … by naph”) in test [1] was ~ 2 μM.

`OCC(Cl)(Cl)Cl` [2,2,2-Trichloroethanol]: the “two-electrode voltage clamp … by naph” value in test [1] is on record as ~ 2 mM.

Take naphthalene-etomidate: the midpoint of inhibition in test [2], the IC50, lay at 76 µM.

For the molecule `CCOC(=O)Nc1ccc(NCc2c(C)cc(C)cc2C)cc1N` [AA29504], in test [1], the “two-electrode voltage clamp … by naph” value is reported as ~ 1 μM.

For the molecule `Cl/C(=C\n1cncn1)c1ccc(Cl)cc1Cl` [Loreclezole], in test [1], the “two-electrode voltage clamp … by naph” value is given as ~ 10 μM.

On to `FC(F)OC(Cl)C(F)(F)F` (stereo not shown) [Isoflurane], for which, in test [1], the “two-electrode voltage clamp … by naph” value was ~ 1.5 mM.

`NCc1cc(=O)[nH]o1` [Muscimol]: in test [3], the “two-electrode voltage clamp; potentiation of EC5 GABA currents, not reversed by” value is given as ~ 3 μM.

The record behind these values is article PMC7006677 (Pharmacological reports : PR, 2020).
